Read-outs that look alike come from different tables or passages of the source. Residues, ends and D or L forms follow the SMILES beside them.
Assays:
A. baumannii RUH875 = format: cell-based; conditions: for LC99.9 A. baumannii RUH875 50% Plasma 2 h: RUH875, 2 h; for LC99.9 A. baumannii RUH875 50% Plasma 18 h: RUH875, 18 h
Procedure: (§1) The bacterial strains used in this study included S. aureus JAR060131 [54] and the MDR ESKAPE pathogens Enterococcus faecium LUH15122, S. aureus LUH14616, Klebsiella pneumoniae LUH15104, A. baumannii RUH875 [55], Pseudomonas aeruginosa LUH15103, Enterobacter cloacae LUH15114, and the colistin-resistant Escherichia coli LUH15117. Before each experiment, bacteria from frozen stocks were cultured at 37 °C for 18–24 h on sheep blood agar plates (BioMérieux, Marcy-l’Étoile, France). All strains were then cultured from colonies either in tryptic soy broth (TSB; Oxoid, Basingstoke, UK) for A. baumannii, S. aureus, and E. faecium, or in brain heart infusion broth (BHI; Oxoid) for K. pneumoniae, P. aeruginosa, E. cloacae, and E. coli at 37 °C with shaking at 120 rpm for 18–24 h. Subsequently, bacteria were cultured to mid-logarithmic phase in the media described above at 37 °C with shaking at 120 rpm for 3 h. Bacteria were then washed twice with PBS and diluted to the required inoculum suspension concentration in Roswell Park Memorial Institute (RPMI)-1640 medium containing 20 mM HEPES and L-glutamine but without sodium bicarbonate (Sigma-Aldrich; hereafter referred to as RPMI), based on optical density at 620 nm. RPMI was selected because it supports bacterial growth without impairing AMP activity.
(§2) Bactericidal activity was assessed as described by de Breij et al.. Briefly, mid-logarithmic phase bacterial cultures were diluted to a final concentration of 1 × 10^7 colony-forming units (CFU)/mL in RPMI. Then, 10 µL was added to a final volume of 100 µL in RPMI (final concentration: 1 × 10^6 CFU/mL). Cultures were exposed to peptides either in RPMI or RPMI supplemented with 50% (v/v) human plasma (hereafter referred to as 50% plasma), obtained from four healthy volunteers after informed consent, frozen after collection, and pooled (Sanquin, Amsterdam, The Netherlands). Assays were performed in duplicate using round-bottom polypropylene microtiter plates (Costar, Arlington, VA, USA) and repeated three times. In the initial screening phase (Table 1, Table 2 and Table S1), peptide solutions of 1, 10, and 100 μM (final concentration) were tested against A. baumannii RUH875 and S. aureus JAR060131 in RPMI and in 50% plasma. After this selection process, two lead candidates, their RI variants, and reference peptides were tested with a final concentration range of 0.12 to 120 µM (two-fold dilutions) in RPMI and in 50% plasma (Table 3). The peptides were also tested against ESKAPE pathogens, with Synthetic Antimicrobial and Antibiofilm Peptide (SAAP)-148 as a reference peptide (Table 4).RPMI or 50% plasma served as no-treatment controls. After 2 and 18 h of incubation at 37 °C with shaking at 120 rpm in a humidified environment, the numbers of viable bacteria were quantified. Bactericidal activity was expressed as the lethal concentration 99.9% (LC99.9), defined as the lowest peptide concentration that killed ≥99.9% of bacteria within 2 h (LC99.9_2h) or 18 h (LC99.9_18h) compared to the initial inoculum.

E. cloacae LUH15114 = format: cell-based; conditions: for LC99.9 E. cloacae LUH15114 50% Plasma 2 h / LC99.9 E. cloacae LUH15114 RPMI 2 h: LUH15114, 2 h
Procedure: as §1, §2

E. faecium LUH15122 = format: cell-based; conditions: for LC99.9 E. faecium LUH15122 50% Plasma 18 h / LC99.9 E. faecium LUH15122 RPMI 18 h: LUH15122, 18 h
Procedure: as §1, §2

K. pneumoniae LUH15104 = format: cell-based; conditions: for LC99.9 K. pneumoniae LUH15104 50% Plasma 2 h / LC99.9 K. pneumoniae LUH15104 RPMI 2 h: LUH15104, 2 h; for LC99.9 K. pneumoniae LUH15104 50% Plasma 18 h / LC99.9 K. pneumoniae LUH15104 RPMI 18 h: LUH15104, 18 h
Procedure: as §1, §2

P. aeruginosa LUH15103 = format: cell-based; conditions: for LC99.9 P. aeruginosa LUH15103 50% Plasma 2 h / LC99.9 P. aeruginosa LUH15103 RPMI 2 h: LUH15103, 2 h; for LC99.9 P. aeruginosa LUH15103 50% Plasma 18 h / LC99.9 P. aeruginosa LUH15103 RPMI 18 h: LUH15103, 18 h
Procedure: as §1, §2

S. aureus JAR060131 = format: cell-based; conditions: for LC99.9 S. aureus JAR060131 50% Plasma 18 h: JAR060131, 18 h
Procedure: as §1, §2

[1] = test system: BJ human skin fibroblast cells; assay: LDH leakage assay (membrane integrity); conditions: lowest concentration causing >30% LDH leakage; BJ fibroblasts; 24 h; DMEM with 2% FBS; 0.05-60 µM
Procedure: BJ human skin fibroblast cells (ATCC CRL-2522; RRID: CVCL_3653; LGC Standards, Germany (September 2023)) were cultured in Dulbecco’s Modified Eagle Medium (DMEM; Gibco, Waltham, MA, USA) supplemented with 10% (v/v) foetal bovine serum (FBS; Sigma-Aldrich) and 1% (v/v) penicillin/streptomycin (pen/strep; Gibco). Cell suspensions (5 × 10^5 cells/mL) were seeded into 96-well plates (100 μL/well; Thermo Scientific, Waltham, MA, USA) and allowed to adhere for 24 h. Monolayers were then exposed to two-fold serial dilutions of GDST peptides, their RI variants, and reference peptides (final concentrations: 0.05 to 60 µM) in fresh DMEM with 2% (v/v) FBS for 24 h at 37 °C in a humidified atmosphere with 5% CO2.
Cell viability and membrane integrity were assessed using the water-soluble tetrazolium salt (WST-1; Roche, Basel, Switzerland) assay and the lactate dehydrogenase (LDH; Abcam, Cambridge, UK) assay, respectively, according to manufacturer instructions. Results were expressed as percentages of metabolic activity and LDH leakage relative to untreated control cells and the positive lysis control, respectively. The cytotoxic concentration was defined as the lowest peptide concentration causing <70% metabolic activity and >30% LDH leakage. All experiments were performed in triplicate.

[2] = test system: S. aureus JAR060131 biofilm; assay: Biofilm killing; format: cell-based, Staphylococcus aureus; conditions: for Concentration giving ≥3-log reduction of S. aureus biofilm CFU within 2 h: 2 h treatment in PBS; for Concentration giving ≥3-log reduction of S. aureus biofilm CFU within 24 h: 24 h treatment, >3 log for BP2 and pexiganan
Procedure: Mid-logarithmic phase cultures of A. baumannii RUH875 or S. aureus JAR060131 were diluted to 1 × 10^8 CFU/mL in RPMI supplemented with 1% glucose. A total of 100 μL of each suspension was added to flat-bottom polystyrene 96-well microplates (Costar) and incubated under static conditions at 37 °C in a humidified atmosphere for 24 h to allow biofilm formation. After 24 h, planktonic bacteria were removed, and wells were carefully washed with 100 μL PBS [60]. […] Control samples were exposed to 100 μL of PBS only.
Biofilms were treated at 37 °C for either 2 or 24 h. […] Plates were sealed and sonicated for 5 min (Elmasonic, Singen, Germany; 45 kHz) at room temperature to dislodge adherent bacteria. […] Quantitative cultures were performed by plating serial 10-fold dilutions on sheep blood agar, and results were expressed as log10 CFU per well. The lower limit of detection was three CFU. Each condition was tested in six replicates.

[3] = 50% plasma, 2 h, median of three independent experiments

Compound | LC99.9 A. baumannii RUH875 50% Plasma 2 h (A. baumannii RUH875) | LC99.9 A. baumannii RUH875 50% Plasma 18 h (A. baumannii RUH875) | LC99.9 E. cloacae LUH15114 50% Plasma 2 h (E. cloacae LUH15114) | LC99.9 E. cloacae LUH15114 RPMI 2 h (E. cloacae LUH15114) | LC99.9 E. faecium LUH15122 RPMI 2 h (E. faecium LUH15122; LUH15122, 2 h) | LC99.9 E. faecium LUH15122 50% Plasma 18 h (E. faecium LUH15122) | LC99.9 E. faecium LUH15122 RPMI 18 h (E. faecium LUH15122) | LC99.9 K. pneumoniae LUH15104 50% Plasma 2 h (K. pneumoniae LUH15104) | LC99.9 K. pneumoniae LUH15104 RPMI 2 h (K. pneumoniae LUH15104) | LC99.9 K. pneumoniae LUH15104 50% Plasma 18 h (K. pneumoniae LUH15104) | LC99.9 K. pneumoniae LUH15104 RPMI 18 h (K. pneumoniae LUH15104) | LC99.9 P. aeruginosa LUH15103 50% Plasma 2 h (P. aeruginosa LUH15103) | LC99.9 P. aeruginosa LUH15103 RPMI 2 h (P. aeruginosa LUH15103) | LC99.9 P. aeruginosa LUH15103 50% Plasma 18 h (P. aeruginosa LUH15103) | LC99.9 P. aeruginosa LUH15103 RPMI 18 h (P. aeruginosa LUH15103) | LC99.9 S. aureus JAR060131 50% Plasma 2 h (S. aureus JAR060131; JAR060131, 2 h) | LC99.9 S. aureus JAR060131 RPMI 2 h (S. aureus JAR060131; JAR060131, 2 h) | LC99.9 S. aureus JAR060131 50% Plasma 18 h (S. aureus JAR060131) | Cytotoxicity LDH Leakage >30% [1] | Concentration giving ≥3-log reduction of S. aureus biofilm CFU within 2 h ([2]; 24 h biofilm) | also measured
Ac-KRWVKILKKVWRFL-NH2 [GDST-045] | 1.88 µM | 0.94 µM | 60 µM | 1.88 µM | 0.94 µM | 3.75 µM | 0.94 µM | 15 µM | 0.94 µM | 7.5 µM | 1.88 µM | 60 µM | 1.88 µM | 30 µM | 3.75 µM | 3.75 µM | 0.94 µM | 1.88 µM | 3.75 µM | ≥ 7.5 µM | LC99.9 E. cloacae LUH15114 50% Plasma 18 h (E. cloacae LUH15114; LUH15114, 18 h): 30 µM; LC99.9 E. cloacae LUH15114 RPMI 18 h (E. cloacae LUH15114; LUH15114, 18 h): 1.88 µM; LC99.9 E. faecium LUH15122 50% Plasma 2 h (E. faecium LUH15122; LUH15122, 2 h): 0.94 µM; Concentration giving complete eradication of S. aureus biofilm within 24 h ([2]; 24 h biofilm, 24 h treatment in PBS): ≥ 30 µM
CC[C@@H](C)[C@@H](NC(=O)[C@@H](C)NC(=O)[C@@H](CCCCN)NC(=O)[C@@H](CCCCN)NC(=O)[C@@H](Cc1c[nH]c2ccccc12)NC(=O)[C@@H](Cc1c[nH]c2ccccc12)NC(=O)[C@@H](CCCNC(=N)N)NC(=O)[C@@H](CC(C)C)NC(=O)[C@@H](CC(C)C)NC(C)=O)C(=O)N[C@H](CCCCN)C(=O)N[C@@H](C(=O)N[C@H](Cc1c[nH]c2ccccc12)C(=O)N[C@H](CCCNC(=N)N)C(=O)N[C@H](CCCCN)C(N)=O)C(C)C [GDST-038-RI] (HELM PEPTIDE1{[ac].[dL].[dL].[dR].[dW].[dW].[dK].[dK].[dA].[dI].[dK].[dV].[dW].[dR].[dK].[am]}$$$$V2.0; N-terminus and C-terminus assumed) |  | 0.94 µM | 60 µM | 30 µM | 3.75 µM | 3.75 µM | 0.94 µM | 15 µM | 15 µM | 3.75 µM | 7.5 µM | 30 µM | 15 µM | 15 µM | 7.5 µM | 3.75 µM |  | 3.75 µM | 3.75 µM |  | Concentration giving ≥3-log reduction of S. aureus biofilm CFU within 24 h [2]: ≥ 60 µM
Ac-KRWVKIAKKWWRLL-NH2 [GDST-038] | 0.94 µM | 0.47 µM | 60 µM | 3.75 µM |  | 7.5 µM | 0.94 µM | 7.5 µM | 3.75 µM | 3.75 µM | 3.75 µM | 15 µM | 7.5 µM | 15 µM | 3.75 µM |  | 0.94 µM | 0.94 µM | 3.75 µM | ≥ 60 µM | LC99.9 E. cloacae LUH15114 50% Plasma 18 h (E. cloacae LUH15114; 50% plasma, 18 h, median of three independent experiments): 1.88 µM; LC99.9 E. cloacae LUH15114 RPMI 18 h (E. cloacae LUH15114; RPMI, 18 h, median of three independent experiments): 1.88 µM; LC99.9 E. faecium LUH15122 50% Plasma 2 h (E. faecium LUH15122; [3]): 1.88 µM; LC99.9 E. faecium LUH15122 RPMI 2 h (E. faecium LUH15122; RPMI, 2 h, median of three independent experiments): 1.88 µM; LC99.9 S. aureus JAR060131 50% Plasma 2 h (S. aureus JAR060131; [3]): 1.88 µM; S. aureus biofilm CFU reduction within 2 h ([2]; 2 h treatment, concentration not given): 5.1 log CFU; Concentration giving ≥3-log reduction of S. aureus biofilm CFU within 24 h [2]: 120 µM
Ac-LKRVWKRVFKLLKRYWRQLKKPVR-NH2 (N-terminus and C-terminus assumed) [SAAP-148, reference compound] |  |  |  |  |  |  |  |  |  |  |  |  |  |  |  |  |  |  | 1.88 µM |  | E. cloacae eradicated at lower concentrations in plasma (E. cloacae LUH15114; 50% plasma vs RPMI, 18 h): 4 fold
